Assay results as given in US20050070552A1, “Ion channel modulating activity I” (Cardiome Pharma Corp., priority 2003, published 2005).
Like-named read-outs stand apart in the source and are kept apart here.

Experiments:
[1] = biological target: human heart sodium channels (hH1) (Homo sapiens, UniProt Q14524); assay type: cell-based
[2] = assay type: in vivo, rabbit
Method: Briefly, continuous infusion of COMPOUND A was administered prior to continuous infusion of methoxamine and followed by clofilium. The incidence of TdP (the number of animals in which TdP occurred) was compared to experiments in which COMPOUND A was not infused.
The following procedure was used: (1) Female NZW rabbits were weighed and anaesthetised initially with 35 mg/kg sodium pentobarbital via ear vein (60 mg/mL) using a sterile 23G 3/4 needle. Additional doses (in increments of 0.2-0.3 mL) were used if required to attain and maintain sufficient anaesthesia as determined by abolishment of eyelid reflex. Care was taken not to over anaesthetize as this could cause respiratory and cardiac arrest. (2) The anaesthetised rabbit was placed on a rabbit restraining board in the supine position and limbs were tied down. (3) The fur in the neck and inguinal region were wetted with water and trimmed down to the skin with scissors to facilitate dissection. Fur was placed in a water-filled beaker to prevent fur from becoming airborne. (4) The left or right femoral artery was cannulated with PE 50 tubing and attached to a pressure transducer to monitor blood pressure. (5) The right and left jugular veins were cannulated using PE-90 tubing for drug delivery via an infusion pump. (6) The left or right femoral vein was cannulated using PE-50 tubing for drug delivery via an infusion pump. (7) ECG leads were attached as follows: the ground lead was inserted subcutaneously into the femoral vein region; one lead was inserted subcutaneously near the apex of the heart and the third lead was placed in the open surgical area near the right jugular vein. (8) Control recordings of ECG and blood pressure were taken for 5 minutes to observe pre-drug effects. Recordings were continued throughout the entire experiment. (9) Arterial K^+ concentration was measured with the hand-held I-STAT blood-gas analyzer prior to infusion of arrhythmogenic agent and at the end of the experiment. […] Infusion was continued throughout the experiment. (11) After a further 5 minutes, methoxamine was administered at 20 μg/kg/min via the femoral vein. Methoxamine infusion was also continued throughout the experiment. (12) 10 minutes following the start of methoxamine infusion, clofilium was infused via a jugular vein. (13) In COMPOUND A-pretreated animals and controls, recording continued for 15 minutes regardless of whether TdP is seen or not. (14) A blood sample was collected when the experimental endpoint was reached, immediately after the infusion pumps were stopped.
COMPOUND A was applied and examined as described. To analyze the data, the parameters measured are (1) incidence of TdP (2) duration of TdP episodes (3) arterial K^+ concentration, (4) PR, QRS and QTc intervals during normal sinus rhythm (until arrhythmias begin and determination is no longer possible), (5) BP, and (6) HR.

[3] = test system: rabbit Purkinje fibers; test: Action potential duration in rabbit Purkinje fibers; assay type: cell-based; conditions: n=10
Method: A midline thoracotomy was performed and the heart was excised as practised by those skilled in the art. […] The heart was perfused with standard bicarbonate buffered Krebs' solution known to those skilled in the art. An electrode was pulled from thin-walled filamented borosilicate glass capillary tubes having a resistance of 10 to 30 megaohms when filled with 3 M KCl. The electrode was attached to headstage mounted on an Axoclamp 2A amplifier (or a similar amplifier known to those skilled in the art). The microelectrode was brought down upon an exposed Purkinje fiber using a micromanipulator and the position was adjusted until the electrode penetrated a single Purkinje cell. The Purkinje fiber network was stimulated using a biphasic stimulation pulse and subsequent action potentials were recorded for analysis.

[4] = test system: rabbit Purkinje fibers; conditions: cited from earlier work
[5] = biological target: T1, hH1 sodium channel (Homo sapiens, UniProt Q14524); test: Inactivated state inhibition of hH1 sodium channel current (prepulse protocol); assay type: cell-based
T1 construct: expressed in transfected cells; host or cells: HEK293

[6] = test system: isolated rabbit Purkinje fibers; conditions: 100 μM
[7] = methoxamine plus clofilium, no pretreatment
[8] = 300 nM dofetilide in the presence of DMSO

Chain of human heart sodium channels (hH1) (Q14524 whole entry, looked up): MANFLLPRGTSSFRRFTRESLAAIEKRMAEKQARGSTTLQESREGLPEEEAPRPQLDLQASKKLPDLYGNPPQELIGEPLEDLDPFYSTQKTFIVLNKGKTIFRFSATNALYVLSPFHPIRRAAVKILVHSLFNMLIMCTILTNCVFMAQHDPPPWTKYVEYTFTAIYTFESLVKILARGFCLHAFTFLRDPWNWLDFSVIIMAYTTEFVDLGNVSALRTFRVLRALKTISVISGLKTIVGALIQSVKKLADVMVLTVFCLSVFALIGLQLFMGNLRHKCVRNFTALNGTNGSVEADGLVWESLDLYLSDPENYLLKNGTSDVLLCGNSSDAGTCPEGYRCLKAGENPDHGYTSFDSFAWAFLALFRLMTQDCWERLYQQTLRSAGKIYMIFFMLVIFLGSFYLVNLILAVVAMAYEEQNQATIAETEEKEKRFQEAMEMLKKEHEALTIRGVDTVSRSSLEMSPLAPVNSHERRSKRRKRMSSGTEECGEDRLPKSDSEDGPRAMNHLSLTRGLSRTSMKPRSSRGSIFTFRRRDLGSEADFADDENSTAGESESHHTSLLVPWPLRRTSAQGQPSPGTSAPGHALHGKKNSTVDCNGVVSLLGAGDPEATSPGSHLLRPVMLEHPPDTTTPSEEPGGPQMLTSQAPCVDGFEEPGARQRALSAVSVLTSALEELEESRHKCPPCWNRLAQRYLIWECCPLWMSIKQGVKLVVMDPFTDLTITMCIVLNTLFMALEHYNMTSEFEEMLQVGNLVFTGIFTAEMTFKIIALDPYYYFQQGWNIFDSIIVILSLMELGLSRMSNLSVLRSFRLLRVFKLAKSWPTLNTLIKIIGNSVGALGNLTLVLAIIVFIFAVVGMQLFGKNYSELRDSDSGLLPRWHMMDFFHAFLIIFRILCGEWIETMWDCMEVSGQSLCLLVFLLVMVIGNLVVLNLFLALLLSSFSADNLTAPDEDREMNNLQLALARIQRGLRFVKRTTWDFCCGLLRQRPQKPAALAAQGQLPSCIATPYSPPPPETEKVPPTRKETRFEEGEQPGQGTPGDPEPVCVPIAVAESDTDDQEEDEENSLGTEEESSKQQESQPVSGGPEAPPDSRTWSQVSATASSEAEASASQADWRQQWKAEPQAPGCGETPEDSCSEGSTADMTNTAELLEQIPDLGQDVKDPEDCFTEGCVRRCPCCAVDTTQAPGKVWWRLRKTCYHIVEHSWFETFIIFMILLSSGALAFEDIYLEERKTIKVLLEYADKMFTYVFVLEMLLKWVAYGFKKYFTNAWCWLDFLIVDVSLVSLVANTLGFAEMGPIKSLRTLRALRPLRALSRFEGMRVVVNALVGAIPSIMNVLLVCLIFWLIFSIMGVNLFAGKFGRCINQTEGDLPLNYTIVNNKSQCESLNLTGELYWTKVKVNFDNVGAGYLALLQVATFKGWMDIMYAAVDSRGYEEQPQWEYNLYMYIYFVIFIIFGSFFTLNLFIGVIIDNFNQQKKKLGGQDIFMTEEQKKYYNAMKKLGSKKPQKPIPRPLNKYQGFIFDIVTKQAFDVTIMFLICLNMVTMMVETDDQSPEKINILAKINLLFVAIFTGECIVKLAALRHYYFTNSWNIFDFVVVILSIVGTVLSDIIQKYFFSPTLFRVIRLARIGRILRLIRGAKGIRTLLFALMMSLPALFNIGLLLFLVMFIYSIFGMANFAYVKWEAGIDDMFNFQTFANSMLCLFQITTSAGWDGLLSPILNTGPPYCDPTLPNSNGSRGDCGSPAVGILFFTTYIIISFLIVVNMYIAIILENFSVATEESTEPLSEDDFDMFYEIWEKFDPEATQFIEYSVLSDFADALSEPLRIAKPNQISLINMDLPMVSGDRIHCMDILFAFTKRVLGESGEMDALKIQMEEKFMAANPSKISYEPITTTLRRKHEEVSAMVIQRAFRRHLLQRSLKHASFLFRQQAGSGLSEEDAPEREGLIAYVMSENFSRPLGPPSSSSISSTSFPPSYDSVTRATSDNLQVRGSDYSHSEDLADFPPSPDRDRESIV
T1 sequence (Q14524 whole entry): as the sequence (Q14524 whole entry, looked up) above

## NC1=N[C@H](O)[C@H]2[C@H]3O[C@]4(O)O[C@@H]([C@@H](O)[C@@]2(N1)[C@@H]4O)[C@]3(O)CO [TTX, tetrodotoxin]
[1]
  block of unsubtracted Iearly: completely

## CCCCCCC[N+](CC)(CC)CCCCc1ccc(Cl)cc1 [clofilium]
[2]; methoxamine 20 μg/kg/min plus clofilium 300 nmol/kg/min, no pretreatment
  TdP incidence (animals): 7 of 9
[2]; methoxamine and clofilium without any pretreatment
  increase in QTc interval 2.5 minutes after starting clofilium: 20±11%
[2]; [7]
  cumulative dose of clofilium at TdP: 1.4 ± 0.2 mg/kg
  time to TdP after starting clofilium infusion: 7.0 ± 1.3 min
  time to first PVC after starting clofilium infusion: 3.3 ± 0.5 min

## CN(CCOc1ccc(NS(C)(=O)=O)cc1)CCc1ccc(NS(C)(=O)=O)cc1 [dofetilide]
[3]; [8]
  increase in APD90: 92%
  percentage increase in APD50: 86%
[3]; dofetilide and DMSO
  Vmax: 253±48 V/s
[4]; 10 nM, BCL=1000 ms
  increase of APD90: 83%

## CCN(CC)CC(=O)Nc1c(C)cccc1C [lidocaine]
[1]
  block of TTX-sensitive early current Iearly(TTX): 41±2.7%
  block of TTX-sensitive late current Ilate(TTX): 73±2.8%
  block of TTX-sensitive sustained current Isus(TTX): 70±2.5%
[5]
  hH1 inhibition with longer prepulses (inactivated state inhibition): enhanced inhibition
[6]
  termination of EADs induced by 300 nM dofetilide: terminated

## C=C[C@H]1C[N@@]2CC[C@H]1C[C@@H]2[C@@H](O)c1ccnc2ccc(OC)cc12 [quinidine]
[4]; 10 μM
  increase of APD90: 93%
